Experimental data from patent publication US11717639B2, “Combinatorial therapeutic systems and methods” (Cognifisense, Inc., priority 2018, dated 2023).
Entries after “also recorded” stand apart in the source; their conditions may differ.

How the values were obtained:
[1] = test system: pain associated with fibromyalgia; assay: Combinatorial therapy of milnacipran and VRNT or virtual reality distraction therapy for fibromyalgia; format: in vivo, patient
Source text: In an exemplary embodiment, a combinatorial therapeutic system for treating fibromyalgia includes a serotonin-norepinephrine reuptake inhibitor (SNRI) and an artificial sensory experience. The SNRI can include milnacipran, specifically, and in some embodiments, the SNRI can include other SNRIs commonly prescribed to treat fibromyalgia (e.g., duloxetine). Similar to those combinatorial systems described above, the artificial sensory experience combined with the SNRI (preferably milnacipran) can include any of 2D/3D/4D artificial sensory experiences, holography, augmented reality, virtual reality, and/or mixed reality. In an exemplary embodiment, the artificial sensory experience is VRNT or virtual reality distraction therapy.
In some embodiments, the combinatorial treatment systems and methods for treating/mitigating pain associated with fibromyalgia can have similar results to those illustrated and described with respect to FIGS. 5A, 5B, 5C, 6A, and 6B.

[2] = target: H1 receptors (Homo sapiens, UniProt P35367); settings: cited from earlier work
[3] = test system: α1 receptors; settings: cited from earlier work
[4] = target: D1 receptors (Homo sapiens, UniProt P21728); settings: cited from earlier work
[5] = target: D2 receptors (Homo sapiens, UniProt P14416); settings: cited from earlier work
[6] = test system: mACh receptors; settings: cited from earlier work
[7] = test system: benzodiazepine binding sites; settings: cited from earlier work
[8] = test system: opioid binding sites; settings: cited from earlier work
[9] = test system: pain; assay: Combinatorial therapy of opioid analgesic and VRNT: patient's amount of pain over time (FIGS. 5A-5C); format: in vivo; settings: opioid analgesic in combination with VRNT, potential patient responses
Source text: FIGS. 5A-5C illustrate exemplary graphs of potential effects of combinatorial therapeutic systems/methods employing tapentadol and VRNT on a patient's amount of pain over time; and
The synergistic effects of the disclosed combinatorial therapeutic systems/methods can be exemplified in a plurality of responses. For example, FIGS. 5A-5C illustrate a combinatorial therapy using tapentadol (as the opioid analgesic) and VRNT (as the artificial sensory experience) with different potential patient responses. As many, if not all, patients may experience the synergistic benefits afforded by the disclosed combinatorial therapeutic systems/methods as an average benefit, the individual-specific responses may be different.

[10] = relative to tramadol and morphine; cited from earlier work
[11] = test system: pain; settings: reported; cited from earlier work

D1 receptors, sequence (P21728 whole entry): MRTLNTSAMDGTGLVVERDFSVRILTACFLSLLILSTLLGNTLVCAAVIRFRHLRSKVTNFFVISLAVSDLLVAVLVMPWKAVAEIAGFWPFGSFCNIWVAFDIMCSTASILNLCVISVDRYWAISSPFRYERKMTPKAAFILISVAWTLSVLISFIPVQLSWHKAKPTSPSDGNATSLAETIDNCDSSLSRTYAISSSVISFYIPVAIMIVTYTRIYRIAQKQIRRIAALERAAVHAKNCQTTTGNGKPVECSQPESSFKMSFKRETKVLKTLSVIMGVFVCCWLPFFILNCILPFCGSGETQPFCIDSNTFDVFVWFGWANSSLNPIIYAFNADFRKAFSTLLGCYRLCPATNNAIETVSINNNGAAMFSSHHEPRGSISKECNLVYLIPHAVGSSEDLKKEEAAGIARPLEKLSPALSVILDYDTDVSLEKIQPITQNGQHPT
D2 receptors, sequence (P14416 whole entry): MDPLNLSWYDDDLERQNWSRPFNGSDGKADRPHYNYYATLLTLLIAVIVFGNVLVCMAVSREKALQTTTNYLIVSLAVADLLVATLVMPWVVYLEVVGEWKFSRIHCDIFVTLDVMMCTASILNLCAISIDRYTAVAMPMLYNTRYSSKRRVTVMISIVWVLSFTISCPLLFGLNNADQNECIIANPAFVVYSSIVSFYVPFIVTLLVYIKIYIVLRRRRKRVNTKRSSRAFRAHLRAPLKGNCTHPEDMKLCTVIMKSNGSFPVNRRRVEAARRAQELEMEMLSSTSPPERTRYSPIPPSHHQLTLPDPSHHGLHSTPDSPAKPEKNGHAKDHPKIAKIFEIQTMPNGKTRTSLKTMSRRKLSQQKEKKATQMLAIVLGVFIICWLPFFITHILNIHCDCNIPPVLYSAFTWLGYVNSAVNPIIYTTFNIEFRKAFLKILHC
H1 receptors, sequence (P35367 whole entry): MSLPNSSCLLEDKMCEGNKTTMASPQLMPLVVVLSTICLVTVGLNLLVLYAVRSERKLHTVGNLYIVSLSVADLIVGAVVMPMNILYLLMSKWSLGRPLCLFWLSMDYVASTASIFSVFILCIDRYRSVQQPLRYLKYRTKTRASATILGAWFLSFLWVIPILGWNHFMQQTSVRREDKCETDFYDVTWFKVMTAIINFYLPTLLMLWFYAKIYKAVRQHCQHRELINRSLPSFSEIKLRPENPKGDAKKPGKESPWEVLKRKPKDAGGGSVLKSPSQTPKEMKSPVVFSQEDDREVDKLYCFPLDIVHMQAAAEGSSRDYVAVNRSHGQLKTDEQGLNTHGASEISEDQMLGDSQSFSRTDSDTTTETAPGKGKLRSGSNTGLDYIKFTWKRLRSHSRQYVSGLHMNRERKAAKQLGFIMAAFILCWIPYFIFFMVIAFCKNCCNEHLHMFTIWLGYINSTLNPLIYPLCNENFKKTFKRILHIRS

Structure (SMILES) | pain over time [1] | actions on H1 receptors [2] | actions on α1 receptors [3] | actions on D1 receptors [4] | actions on D2 receptors [5] | actions on mACh receptors [6] | actions on benzodiazepine binding sites [7] | actions on opioid binding sites [8] | patient's amount of pain over time [9] | potency [10] | pain reduction / efficacy versus placebo [11]
CCN(CC)C(=O)C1(c2ccccc2)CC1CN (centres unmarked) [milnacipran] | decrease in pain over time | no significant actions | no significant actions | no significant actions | no significant actions | no significant actions | no significant actions | no significant actions | – | – | –
CC[C@@H](c1cccc(O)c1)[C@@H](C)CN(C)C [tapentadol] | – | – | – | – | – | – | – | – | constant or linear decrease in pain over time; also recorded: cyclical decrease and increase in pain levels over time with an overall decreasing pain level; also recorded: step-wise reduction in pain levels | somewhere between tramadol, another synthetic opioid, and morphine | limited efficacy beyond placebo; also recorded: only marginal incremental pain reduction versus placebo
